Measured values reported in US20260285850A1, “SUBSTITUTED OXAZOLIDINONES AND IMIDAZOLINONES AS HERBICIDES” (FMC CORPORATION, priority 2023, published 2026).

Key:
Type in all cases: in vivo
[1] = tested on: barnyardgrass (Echinochloa crus-galli); assay: Test A preemergence soil spray, visual injury rating 0-100; details: 10 days
In short: (§1)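 Scale 0–100 (no effect to complete control), visual, versus untreated controls, read 10 days after application. Application: preemergence directed spray onto seeded loam–sand soil, or postemergence to young plants; formulation in non-phytotoxic solvent with surfactant.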

[2] = tested on: oat, wild (wild oat, Avena fatua); assay: as above; details: 10 days
In short: as §1

[3] = tested on: green foxtail (Setaria viridis); assay: as above; details: 10 days
In short: as §1

corn (Zea mays) [4] = assay: as above; details: 10 days
In short: as §1

kochia (Bassia scoparia) [5] = assay: as above; details: 10 days
In short: as §1

[6] = tested on: ryegrass, Italian (italian ryegrass, Lolium multiflorum); assay: as above; details: 10 days
In short: as §1

soybean (Glycine max) [7] = assay: as above; details: 10 days
In short: as §1

[8] = tested on: blackgrass (Alopecurus myosuroides); assay: as above; details: 10 days
In short: as §1

[9] = tested on: ragweed (common ragweed, Ambrosia artemisiifolia); assay: as above; details: 10 days
In short: as §1

[10] = tested on: palmer (palmer amaranth, palmer pigweed, Amaranthus palmeri); assay: as above; details: 10 days
In short: as §1

[11] = tested on: wheat (Triticum aestivum); assay: as above; details: 10 days
In short: as §1

[12] = tested on: barnyardgrass (Echinochloa crus-galli); assay: Test A postemergence application, visual injury rating 0-100
In short: as §1

[13] = tested on: oat, wild (wild oat, Avena fatua); assay: as above
In short: as §1

[14] = tested on: galium (catchweed bedstraw, Galium aparine); assay: as above; details: Postemergence, 16 g ai/ha, greenhouse 10 days; 0 no effect, 100 complete control
In short: as §1

[15] = tested on: green foxtail (Setaria viridis); assay: as above
In short: as §1

corn (Zea mays) [16] = assay: as above
In short: as §1

kochia (Bassia scoparia) [17] = assay: as above
In short: as §1

[18] = tested on: ryegrass, Italian (italian ryegrass, Lolium multiflorum); assay: as above
In short: as §1

soybean (Glycine max) [19] = assay: as above
In short: as §1

[20] = tested on: blackgrass (Alopecurus myosuroides); assay: as above
In short: as §1

[21] = tested on: ragweed (common ragweed, Ambrosia artemisiifolia); assay: as above
In short: as §1

[22] = tested on: horseweed (Erigeron canadensis); assay: as above
In short: as §1

[23] = tested on: palmer (palmer amaranth, palmer pigweed, Amaranthus palmeri); assay: as above
In short: as §1

[24] = tested on: wheat (Triticum aestivum); assay: as above
In short: as §1

[25] = tested on: ducksalad (Heteranthera limosa); assay: Test B flooded paddy test, visual plant response rating 0-100; details: 250 g ai/ha, Flood, applied to paddy water, evaluated after 13 days
In short: (§2)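 Paddy-water application: test compounds went directly into water flooded 3 cm above the soil surface, with plants at 2 leaves. After a 13-day greenhouse period, responses were judged by eye relative to controls; a dash marks an untested entry.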

rice (Oryza sativa) = assay: as above; details: 250 g ai/ha, Flood, applied to paddy water, evaluated after 13 days
In short: as §2

[26] = tested on: barnyardgrass (Echinochloa crusgalli); assay: as above; details: 250 g ai/ha, Flood, applied to paddy water, evaluated after 13 days
In short: as §2

[27] = tested on: sedge, umbrella (small-flower umbrella sedge, Cyperus difformis); assay: as above; details: 250 g ai/ha, Flood, applied to paddy water, evaluated after 13 days
In short: as §2

[28] = 62 g ai/ha, 0 = no effect, 100 = complete control
[29] = 62 g ai/ha, postemergence, 10 days, 0 = no effect, 100 = complete control
[30] = Postemergence, 16 g ai/ha, greenhouse 10 days, 0 no effect, 100 complete control

For `CSCCOC(=O)C1=CCC(NC(=O)C2(C)CN(c3cc(Cl)cc(Cl)c3)C(=O)O2)C1` (stereo not drawn) [Compound 146], the “Barnyardgrass plant response rating” value ([1]; 16 g ai/ha, 0 to 100 scale) was 0, the “Barnyardgrass plant response rating (0-100)” value [1, 28] was 0 and the “Oat, Wild plant response rating” value ([2]; 16 g ai/ha, 0 to 100 scale) was 0. For the same molecule, the “Oat, Wild plant response rating (0-100)” value [2, 28] was 0, the “Foxtail, Green plant response rating” value ([3]; 16 g ai/ha, 0 to 100 scale) was 0 and the “Foxtail, Green plant response rating (0-100)” value [3, 28] was 0. For the same molecule, the “Corn plant response rating” value (corn (Zea mays) [4]; 16 g ai/ha, 0 to 100 scale) was 0, the “Corn plant response rating (0-100)” value (corn (Zea mays) [4]; [28]) was 0 and the “Kochia plant response rating” value (kochia (Bassia scoparia) [5]; 16 g ai/ha, 0 to 100 scale) was 0. The “Kochia plant response rating (0-100)” value (kochia (Bassia scoparia) [5]; [28]) was 0, the “Ryegrass, Italian plant response rating” value ([6]; 16 g ai/ha, 0 to 100 scale) was 0 and the “Ryegrass, Italian plant response rating (0-100)” value [6, 28] was 20. The “Soybean plant response rating” value (soybean (Glycine max) [7]; 16 g ai/ha, 0 to 100 scale) was 0, the “Soybean plant response rating (0-100)” value (soybean (Glycine max) [7]; [28]) was 0 and the “Blackgrass plant response rating” value ([8]; 16 g ai/ha, 0 to 100 scale) was 0. For the same molecule, the “Blackgrass plant response rating (0-100)” value [8, 28] was 0, the “Ragweed plant response rating” value ([9]; 16 g ai/ha, 0 to 100 scale) was 0 and the “Ragweed plant response rating (0-100)” value [9, 28] was 0. The “Pigweed, Palmer plant response rating” value ([10]; 16 g ai/ha, 0 to 100 scale) was 0, the “Pigweed, Palmer plant response rating (0-100)” value [10, 28] was 0 and the “Wheat plant response rating” value ([11]; 16 g ai/ha, 0 to 100 scale) was 0. The “Wheat plant response rating (0-100)” value [11, 28] was 0, the “Barnyardgrass plant response rating (0-100)” value [12, 29] was 20 and the “Barnyardgrass plant response rating (0 to 100 scale)” value [12, 30] was 0. The “Oat, Wild plant response rating (0-100)” value [13, 29] was 0, the “Oat, Wild plant response rating (0 to 100 scale)” value [13, 30] was 0 and the “Galium plant response rating (0 to 100 scale)” value [14] was 0. For the same molecule, the “Foxtail, Green plant response rating (0-100)” value [15, 29] was 0, the “Foxtail, Green plant response rating (0 to 100 scale)” value [15, 30] was 0 and the “Corn plant response rating (0-100)” value (corn (Zea mays) [16]; [29]) was 0. The “Corn plant response rating (0 to 100 scale)” value (corn (Zea mays) [16]; [30]) was 0, the “Kochia plant response rating (0-100)” value (kochia (Bassia scoparia) [17]; [29]) was 0 and the “Kochia plant response rating (0 to 100 scale)” value (kochia (Bassia scoparia) [17]; [30]) was 0. For the same molecule, the “Ryegrass, Italian plant response rating (0-100)” value [18, 29] was 0, the “Ryegrass, Italian plant response rating (0 to 100 scale)” value [18, 30] was 0 and the “Soybean plant response rating (0-100)” value (soybean (Glycine max) [19]; [29]) was 0. The “Soybean plant response rating (0 to 100 scale)” value (soybean (Glycine max) [19]; [30]) was 0, the “Blackgrass plant response rating (0-100)” value [20, 29] was 0 and the “Blackgrass plant response rating (0 to 100 scale)” value [20, 30] was 0. For the same molecule, the “Ragweed plant response rating (0-100)” value [21, 29] was 0, the “Ragweed plant response rating (0 to 100 scale)” value [21, 30] was 0 and the “Horseweed plant response rating (0-100)” value [22, 29] was 10. The “Horseweed plant response rating (0 to 100 scale)” value [22, 30] was 0, the “Pigweed, Palmer plant response rating (0-100)” value [23, 29] was 0 and the “Pigweed, Palmer plant response rating (0 to 100 scale)” value [23, 30] was 0. The “Wheat plant response rating (0-100)” value [24, 29] was 0, the “Wheat plant response rating (0 to 100 scale)” value [24, 30] was 0 and the “Plant response rating, Ducksalad (0 to 100 scale, 0 is no effect and 100 is complete control)” value [25] was 0. For the same molecule, the “Plant response rating, Rice (0 to 100 scale, 0 is no effect and 100 is complete control)” value (rice (Oryza sativa)) was 0, the “Plant response rating, Barnyardgrass (0 to 100 scale, 0 is no effect and 100 is complete control)” value [26] was 0 and the “Plant response rating, Sedge, Umbrella (0 to 100 scale, 0 is no effect and 100 is complete control)” value [27] was 0.
